Reference: paper PMC8079033, “Design, synthesis, anticancer evaluation, and molecular modelling studies of novel tolmetin derivatives as potential VEGFR-2 inhibitors and apoptosis inducers” (Journal of Enzyme Inhibition and Medicinal Chemistry, 2021)

Columns and labels:
ACHN = assay: NCI 60-cell line one-dose antiproliferative screen (SRB); format: cell-based; conditions: Homo sapiens, read-out: growth inhibition % (GI%)
Experimental: (§1) Anticancer activity screening of the newly synthesised compounds was measured in vitro utilising 60 different human tumour cell lines provided by US National Cancer Institute according to previously reported standard procedure[41–43] as follows: Cells are inoculated into 96-well microtiter plates in 100 ml. After cell inoculation, the microtiter plates are incubated at 37 °C, 5% CO2, 95% air, and 100% relative humidity for 24 h prior to addition of experimental compounds. After 24 h, two plates of each cell line are fixed in situ with TCA, to represent a measurement of the cell population for each cell line at the time of compound addition (Tz). Experimental compounds are solubilised in dimethyl sulfoxide at 400-fold the desired final maximum test concentration and stored frozen prior to use. At the time of compound addition, an aliquot of frozen concentrate is thawed and diluted to twice the desired final maximum test concentration with a complete medium containing […] gentamicin. Aliquots of […] of the compounds dilutions are added to the appropriate microtiter wells already containing 100 ml of medium, resulting in the required final compound concentration. Following compound addition, the plates are incubated for an additional 48 h at 37 °C, 5% CO2, 95% air, and 100% relative humidity. For adherent cells, the assay is terminated by the addition of cold trichloroacetic acid (TCA). Cells are fixed in situ by the gentle addition of 50 ml of cold 50% (w/v) TCA (final concentration, 10% TCA) and incubated for […] at 4 °C. The supernatant is discarded, and the plates are washed five times with tap water and air-dried. Sulforhodamine B (SRB) solution (100 ml) at 0.4% (w/v) in 1% acetic acid is added to each well, and plates are incubated for 10 min at room temperature. After staining, the unbound dye is removed by washing five times with 1% acetic acid and the plates are air-dried. The bound stain is subsequently solubilised with a 10 mM trizma base, and the absorbance is read on an automated plate reader at a wavelength of 515 nm. For suspension cells, the methodology is the same except that the assay is terminated by fixing settled cells at the bottom of the wells by gently adding 50 ml of 80% TCA (final concentration, 16% TCA). Using the absorbance measurements [time zero, (Tz), control growth, (C), and test growth in the presence of compound (Ti)], the percentage growth is calculated for each compound. The One-dose data are reported as a mean graph of the percent growth of treated cells. The reported number is growth relative to the no-compound control, and relative to the time zero number of cells. This allows the detection of both growth inhibition and lethality.
(§2) Fifteen newly synthesised compounds were tested for their in vitro antiproliferative activity by the National Cancer Institute (NCI), Maryland, USA[50], under the Developmental Therapeutic Program (DTP)[41]^,[43]^,[51]^,[52]. The tested compounds were evaluated at a concentration of 10 µM on a panel of 60 tumour cell lines representing leukaemia and non-small cell lung, colon, CNS, melanoma, ovarian, renal, prostate, and breast cancers. The antiproliferative activity was presented by the NCI as percent growth of the treated cells and is presented in Table 1 as growth inhibition percentage (GI%) achieved by the tested compounds.

CAKI-1 = assay: as above; format: cell-based; conditions: Homo sapiens, read-out: growth inhibition % (GI%)
Experimental: as §1, §2

EKVX = assay: as above; format: cell-based; conditions: Homo sapiens, read-out: growth inhibition % (GI%)
Experimental: as §1, §2

HCC-2998 = assay: as above; format: cell-based; conditions: Homo sapiens, read-out: growth inhibition % (GI%)
Experimental: as §1, §2

HCT-15 = assay: as above; format: cell-based; conditions: Homo sapiens, read-out: growth inhibition % (GI%)
Experimental: as §1, §2

HOP-62 = assay: as above; format: cell-based; conditions: Homo sapiens, read-out: growth inhibition % (GI%)
Experimental: as §1, §2

HOP-92 = assay: as above; format: cell-based; conditions: Homo sapiens, read-out: growth inhibition % (GI%)
Experimental: as §1, §2

IGROV1 = assay: as above; format: cell-based; conditions: Homo sapiens, IGROV-1, read-out: growth inhibition % (GI%)
Experimental: as §1, §2

LOX IMVI = assay: as above; format: cell-based; conditions: Homo sapiens, read-out: growth inhibition % (GI%)
Experimental: as §1, §2

MCF7 = assay: as above; format: cell-based; conditions: Homo sapiens, read-out: growth inhibition % (GI%)
Experimental: as §1, §2

MDA-MB-231/ATCC = assay: as above; format: cell-based; conditions: Homo sapiens, read-out: growth inhibition % (GI%)
Experimental: as §1, §2

MDA-MB-435 = assay: as above; format: cell-based; conditions: Homo sapiens, read-out: growth inhibition % (GI%)
Experimental: as §1, §2

MDA-MB-468 = assay: as above; format: cell-based; conditions: Homo sapiens, read-out: growth inhibition % (GI%)
Experimental: as §1, §2

NCI-H226 = assay: as above; format: cell-based; conditions: Homo sapiens, read-out: growth inhibition % (GI%)
Experimental: as §1, §2

NCI-H23 = assay: as above; format: cell-based; conditions: Homo sapiens, read-out: growth inhibition % (GI%)
Experimental: as §1, §2

NCI-H522 = assay: as above; format: cell-based; conditions: Homo sapiens, read-out: growth inhibition % (GI%)
Experimental: as §1, §2

OVCAR-5 = assay: as above; format: cell-based; conditions: Homo sapiens, read-out: growth inhibition % (GI%)
Experimental: as §1, §2

OVCAR-8 = assay: as above; format: cell-based; conditions: Homo sapiens, read-out: growth inhibition % (GI%)
Experimental: as §1, §2

PC-3 = assay: as above; format: cell-based; conditions: Homo sapiens, read-out: growth inhibition % (GI%)
Experimental: as §1, §2

SF-268 = assay: as above; format: cell-based; conditions: Homo sapiens, read-out: growth inhibition % (GI%)
Experimental: as §1, §2

SF-295 = assay: as above; format: cell-based; conditions: Homo sapiens, read-out: growth inhibition % (GI%)
Experimental: as §1, §2

SF-539 = assay: as above; format: cell-based; conditions: Homo sapiens, read-out: growth inhibition % (GI%)
Experimental: as §1, §2

SK-MEL-5 = assay: as above; format: cell-based; conditions: Homo sapiens, read-out: growth inhibition % (GI%)
Experimental: as §1, §2

SN 12 C = assay: as above; format: cell-based; conditions: Homo sapiens, SN12C, read-out: growth inhibition % (GI%)
Experimental: as §1, §2

SNB-75 = assay: as above; format: cell-based; conditions: Homo sapiens, read-out: growth inhibition % (GI%)
Experimental: as §1, §2

SW-620 = assay: as above; format: cell-based; conditions: Homo sapiens, read-out: growth inhibition % (GI%)
Experimental: as §1, §2

U251 = assay: as above; format: cell-based; conditions: Homo sapiens, U-251, read-out: growth inhibition % (GI%)
Experimental: as §1, §2

UACC-257 = assay: as above; format: cell-based; conditions: Homo sapiens, read-out: growth inhibition % (GI%)
Experimental: as §1, §2

UACC-62 = assay: as above; format: cell-based; conditions: Homo sapiens, read-out: growth inhibition % (GI%)
Experimental: as §1, §2

UO-31 = assay: as above; format: cell-based; conditions: Homo sapiens, read-out: growth inhibition % (GI%)
Experimental: as §1, §2

A498 = assay: NCI 60-cell line one-dose antiproliferative screen (SRB); format: cell-based; conditions: Homo sapiens, read-out: growth inhibition % (GI%)
Experimental: as §1, §2

A549/ATCC = assay: as above; format: cell-based; conditions: Homo sapiens, read-out: growth inhibition % (GI%)
Experimental: as §1, §2

BT-5 = assay: as above; format: cell-based; conditions: Homo sapiens, read-out: growth inhibition % (GI%)
Experimental: as §1, §2

HCT-116 = assay: as above; format: cell-based; conditions: Homo sapiens, read-out: growth inhibition % (GI%)
Experimental: as §1, §2

HS 578 T = assay: as above; format: cell-based; conditions: Homo sapiens, read-out: growth inhibition % (GI%)
Experimental: as §1, §2

K-562 = assay: as above; format: cell-based; conditions: Homo sapiens, K562, read-out: growth inhibition % (GI%)
Experimental: as §1, §2

MOLT-4 = assay: as above; format: cell-based; conditions: Homo sapiens, read-out: growth inhibition % (GI%)
Experimental: as §1, §2

OVCAR-4 = assay: as above; format: cell-based; conditions: Homo sapiens, read-out: growth inhibition % (GI%)
Experimental: as §1, §2

RPMI-8226 = assay: as above; format: cell-based; conditions: Homo sapiens, read-out: growth inhibition % (GI%)
Experimental: as §1, §2

SNB-19 = assay: as above; format: cell-based; conditions: Homo sapiens, read-out: growth inhibition % (GI%)
Experimental: as §1, §2

T-47D = assay: as above; format: cell-based; conditions: Homo sapiens, T47D, read-out: growth inhibition % (GI%)
Experimental: as §1, §2

Cc1ccc(C(=O)c2ccc(CC(=O)NN=C3C(=O)Nc4ccccc43)n2C)cc1 [Compound 6a, 2–(1-Methyl-5–(4-methylbenzoyl)-1H-pyrrol-2-yl)-N′-(2-oxoindolin-3-ylidene) acetohydrazide]
11.4%: inhibition at 10 µM (MDA-MB-231/ATCC)
10.5%: inhibition at 10 µM (MDA-MB-468)
193 to 195 °C: melting point
< 10%: inhibition at 10 µM (ACHN) | inhibition at 10 µM (EKVX) | inhibition at 10 µM (HCC-2998) | inhibition at 10 µM (HCT-15) | inhibition at 10 µM (HOP-62) | inhibition at 10 µM (IGROV1) | inhibition at 10 µM (LOX IMVI) | inhibition at 10 µM (MCF7) | inhibition at 10 µM (MDA-MB-435) | inhibition at 10 µM (NCI-H226) | inhibition at 10 µM (NCI-H23) | inhibition at 10 µM (NCI-H522) | inhibition at 10 µM (OVCAR-5) | inhibition at 10 µM (OVCAR-8) | inhibition at 10 µM (PC-3) | inhibition at 10 µM (SF-268) | inhibition at 10 µM (SF-295) | inhibition at 10 µM (SF-539) | inhibition at 10 µM (SK-MEL-5) | inhibition at 10 µM (SN 12 C) | inhibition at 10 µM (SW-620) | inhibition at 10 µM (U251) | inhibition at 10 µM (UACC-257) | inhibition at 10 µM (UACC-62)
29.6%: inhibition at 10 µM (SNB-75)
25.7%: inhibition at 10 µM (UO-31)
11.1%: inhibition at 10 µM (HOP-92)
12.3%: inhibition at 10 µM (CAKI-1)

Cc1ccc(C(=O)c2ccc(CC(=O)NNC(=O)Nc3c(Cl)cccc3Cl)n2C)cc1 [Compound 8a, N-(2,6-Dichlorophenyl)-2–(2-(1-methyl-5–(4-methylbenzoyl)-1H-pyrrol-2-yl)acetyl) hydrazinecarboxamide]
15.9%: inhibition at 10 µM (NCI-H522)
11.7%: inhibition at 10 µM (U251)
< 10%: inhibition at 10 µM (A498) | inhibition at 10 µM (A549/ATCC) | inhibition at 10 µM (ACHN) | inhibition at 10 µM (BT-5) | inhibition at 10 µM (EKVX) | inhibition at 10 µM (HCC-2998) | inhibition at 10 µM (HCT-116) | inhibition at 10 µM (HCT-15) | inhibition at 10 µM (HOP-92) | inhibition at 10 µM (HS 578 T) | inhibition at 10 µM (K-562) | inhibition at 10 µM (LOX IMVI) | inhibition at 10 µM (MDA-MB-231/ATCC) | inhibition at 10 µM (MOLT-4) | inhibition at 10 µM (NCI-H226) | inhibition at 10 µM (NCI-H23) | inhibition at 10 µM (OVCAR-5) | inhibition at 10 µM (OVCAR-8) | inhibition at 10 µM (RPMI-8226) | inhibition at 10 µM (SF-268) | inhibition at 10 µM (SF-539) | inhibition at 10 µM (SK-MEL-5) | inhibition at 10 µM (SN 12 C) | inhibition at 10 µM (SW-620) | inhibition at 10 µM (UACC-257)
11.4%: inhibition at 10 µM (HOP-62)
31.1%: inhibition at 10 µM (UO-31)
10%: inhibition at 10 µM (MCF7)
18%: inhibition at 10 µM (T-47D)
28.1%: inhibition at 10 µM (SNB-75)
11.1%: inhibition at 10 µM (UACC-62)
10.5%: inhibition at 10 µM (PC-3)
14%: inhibition at 10 µM (IGROV1)
245 to 247 °C: melting point
14.9%: inhibition at 10 µM (CAKI-1)
16%: inhibition at 10 µM (OVCAR-4)
17.7%: inhibition at 10 µM (SNB-19)
